From patent publication US20190191740A1, “Methods to Promote Growth and Improve Feed Conversion in Animals” (Nutrivert LLC, priority 2016, published 2019) come the findings set out here.

Bridge positions count the residues as written; N and C are the ends. Square brackets hold non-standard residues; d marks the D form. Peptide text beside a SMILES is read from it. * marks the point of attachment. Ileψ(thiazoline)Cys = CC[C@H](C)[C@H](N)C1=N[C@H](C(=O)*)CS1; dOrn = NCCC[C@@H](N)C(=O)O

One test concerns pigs. Kind of test: Pig feed conversion experiment (Example 3). It is filed as in vivo. Particulars: for feed conversion (total consumed feed / total weight gain): day 0 through day 26. As to the method:
The objective of the experiment for Example 3 was to evaluate if MDP analogs promote growth in mammals as they do in birds. Pigs were selected as an animal model for the mammalian study. This experiment was designed to contrast the effect of a low dose of 0.1 mg mifamurtide/kg feed on growth and feed conversion to untreated control pigs and to pigs treated with 50 mg carbadox/kg feed, an industry-standard AGP used in pigs.
Pigs were weaned at 3-4 weeks of age and allotted based on weight and gender to one of 15 nursery pens with 6 pigs per pen (90 total pigs). Sex of the pigs was balanced within pens in a weight block. Dietary treatments were randomly assigned within weight blocks to pens of pigs. Three dietary treatments were administered in the phase 1 and 2 diets. Phase 1 diets were fed from day 0-14 post-weaning. On day 14 post-weaning, pigs were switched to phase 2 diets, which were fed until day […]. Treatment 1 was the untreated negative control diet without any growth-promoting supplement. […] Feed intake was monitored for each pen and weigh period. […]
The overall (true) feed conversion for each group was determined by dividing total consumed feed by total weight gains of all pigs of each treatment. […] Body weight gain and calculated feed consumption data were analyzed by one-way ANOVA and Tukey Honest True Difference correction for multiple comparisons. For determination of feed conversion of individual pigs, calculated total feed consumption of each pig was divided by total measured weight gain of the pig. […] Group differences in feed conversion were evaluated by non-parametric Mann Whitney U test.
Individual daily feed consumption per pig was computed by a mathematical model from individual body weights determined over the course of the 26-day experiment, and from total weighed feed consumed by each pen. […] The model first linearly interpolates body weights between the actual measured body weights of the pigs. Based on the calculated daily body weight, the daily feed consumption is then calculated as 4% of body weight. […]

Test [1] concerns broiler chickens. As to the kind of experiment: Broiler chicken growth and feed conversion experiment (Example 2, without microbiome seed chickens). Type of test: in vivo, chickens (male Cobb×Cobb). Particulars: for growth rate (percent body weight gain) / increased growth over the 236.2% rate of untreated control chickens: day 15 to 32; for feed conversion relative to untreated control chickens: no microbiome seed chickens. How it is done:
The objective of the experiment was to compare the effect of 1) a low dose of 0.1 mg mifamurtide/kg feed; and 2) an intermediate dose of 0.57 mg romurtide/kg feed, a different MDP analog, to 50 mg bacitracin/kg feed and non-supplemented feed (untreated control chickens). Both the effect on feed conversion and on growth rates, i. e. the dual criteria for growth promotion, were examined.
Two-hundred day-of-hatch male Cobb×Cobb chickens were randomly assigned at 50 each to one of four groups: no feed supplementation; bacitracin at 50 mg/kg of feed; mifamurtide at 0.1 mg/kg of feed; or romurtide at 0.57 mg/kg of feed. Microbiome seed chickens were not used, and individual body weights of all birds were recorded on days 15 and 32. All other experimental parameters followed Example 1.

Test [2] deals with broiler chickens. Kind of test: Broiler chicken feed conversion experiment (Example 1, with microbiome seed chickens). It is filed as in vivo, chickens (male Ross×Ross). Particulars: for feed conversion (total consumed feed / total weight gain): days 0 through day 32. How it is done: The primary objective of this experiment was to evaluate if supplementation of feed with mifamurtide at 1.9 mg/kg feed improves feed conversion in broiler chickens, i.e., if broiler chickens require less feed for the same amount of gain in body weight. A secondary objective was to evaluate whether any such improvement compares favorably or unfavorably to improvement seen with bacitracin, an industry standard AGP. A third objective was to evaluate if fast versus slow acquisition of a healthy microbial flora (microbiome) by the experimental chickens influenced feed conversion. A fourth objective was to determine whether feed supplementation with bacitracin, a commonly used industry-standard antibiotic growth promoter, interacted with a potential influence of microbiome acquisition kinetics on feed conversion.
Two hundred day-of-hatch male Ross×Ross chicks were randomly assigned at 50 each to one of four groups: 1 negative control without microbiome seed chickens; 2 negative control with microbiome seed chickens; 3 bacitracin at 50 mg/kg of feed with microbiome seed chickens; or 4 mifamurtide at 1.9 mg/kg of feed with microbiome seed chickens. The mifamurtide was first mixed with 20 g Lactose (Lactochem Fine Powder, DFE Pharma, Germany), then mixed with corn meal to produce a 2% supplement to prepare the feed, which was fed to the birds ad libitum.
The microbiome seed chickens were healthy 21-day-old birds that had been raised on litter of fresh unused pine shavings, and had not been in contact with any other chickens, and thus had microbiomes characteristic of healthy grown birds. At start of the experiment, groups 2-4 of 50 study chicks were exposed to 10 microbiome seed chickens, which were removed on day 5 and were not counted in study results. The objective of the microbiome seed chickens was to rapidly induce a healthy microbiome in the freshly hatched experimental chickens. In contrast, the development of a normal healthy microbiome required more time in the control group without exposure to microbiome seed chickens.
All chicks were reared with a normal broiler starter in mash form, supplemented with amprolium at 113.5 mg/kg. Each group was raised in 5×10 feet floor pens at a stocking density of 1.0 square foot per bird on fresh pine shavings, in a solid-sided barn, with concrete floors, and under ambient humidity. Feed and water were available ad libitum throughout the trial. Thermostatically controlled gas heaters were the primary heat source for the barn, if needed. One heat lamp per pen provided supplemental heat during brooding. Fans were used to cool birds. […] Individual body weights of all birds were recorded on days 8, 21, and 32. […]
The overall (true) feed conversion for each group was determined by dividing total consumed feed by total weight gains of all chickens of the group. […] Calculated feed consumed by birds that died before termination of the experiment was subtracted from total weighed feed. Body weight gain and calculated feed consumption data were analyzed by one-way ANOVA and Tukey Honest True Difference correction for multiple comparisons, and graphs show means±95% confidence intervals. For determination of feed conversion of individual birds, calculated total feed consumption per bird was divided by total weight gain of the bird. […] Group differences in feed conversion were evaluated by non-parametric Mann Whitney U test, and error bars indicate 25-75 percentiles of calculated feed conversions of individual birds. […]

With mifamurtide, the “feed conversion (total consumed feed / total weight gain)” value worked out at 1.476 in the test with pigs (0.1 mg mifamurtide/kg feed, weaned pigs) and 1.605 g feed/g body weight gain with broiler chickens [2] (1.9 mg mifamurtide/kg feed, with microbiome seed chickens). In the test with broiler chickens [1] (mifamurtide at 0.1 mg/kg feed), the “growth rate (percent body weight gain)” value turned out to be 259.5%. The “increased growth over the 236.2% rate of untreated control chickens” value in the test with broiler chickens [1] (mifamurtide at 0.1 mg/kg feed) is on record as 9.9%. The “feed conversion relative to untreated control chickens” value with broiler chickens [1] (mifamurtide at 0.1 mg/kg feed, optimal husbandry) is “did not decrease feed conversion”. For the same molecule, the “total feed consumed per chicken versus negative controls” value with broiler chickens [2] (mifamurtide 1.9 mg/kg feed, day 0 through day 32 (FIG. 1B)) is given as “consumed less feed”.
As to `CC[C@H](C)[C@H](N)C1=N[C@H](C(=O)N[C@@H](CC(C)C)C(=O)N[C@H](CCC(=O)O)C(=O)N[C@H](C(=O)N[C@H]2CCCCNC(=O)[C@H](CC(N)=O)NC(=O)[C@@H](CC(=O)O)NC(=O)[C@H](Cc3cnc[nH]3)NC(=O)[C@@H](Cc3ccccc3)NC(=O)[C@H]([C@@H](C)CC)NC(=O)[C@@H](CCCN)NC2=O)[C@@H](C)CC)CS1` [bacitracin] ({Ileψ(thiazoline)Cys}-L[dE]IK[dOrn]I[dF]H[dD]N; lactam 4-C), in the test with broiler chickens [1] (bacitracin at 50 mg/kg feed), the “body weights on days 15 and 32, body weight gains and feed intake versus the three other treatments” value is listed as “significantly lower”; the “feed conversion rates versus the three other treatments” value was “higher feed conversion rates”. In addition, the “effect on growth and feed conversion” value in the test on broiler chickens [1] (bacitracin at 50 mg/kg feed, optimal husbandry, absence of a pathogenic microflora) was “profoundly negative effect”. In addition, the “improvement in feed conversion over non-microbiome seeded untreated chickens” value in the test on broiler chickens [2] (50 mg/kg bacitracin treated, microbiome-seeded chickens) is 15.6%. Besides, the “more feed required than mifamurtide supplementation (1.9 mg/kg feed) for the same amount of weight gain” value with broiler chickens [2] (bacitracin at 50 mg/kg feed, with microbiome seed chickens, days 0-32) was determined as 13.6%. In the test with broiler chickens [2] (bacitracin at 50 mg/kg feed, with microbiome seed chickens), the “feed conversion (total consumed feed / total weight gain)” value came to 1.823.
On to `CCCCCCCCCCCCCCCCCC(=O)NCCCC[C@H](NC(=O)CC[C@@H](NC(=O)[C@H](C)NC(=O)[C@@H](C)O[C@H]1[C@H](O)[C@@H](CO)OC(O)[C@@H]1NC(C)=O)C(N)=O)C(=O)O` (some centres unmarked) [romurtide], for which, in the test on broiler chickens [1] (romurtide at 0.57 mg/kg feed), the “growth rate (percent body weight gain)” value is on record as 267.4% and the “increased growth over the 236.2% rate of untreated control chickens” value is reported as 13.2%. The “feed conversion relative to untreated control chickens” value in the test with broiler chickens [1] (romurtide at 0.57 mg/kg feed, optimal husbandry) is listed as “did not decrease feed conversion”.
As to `COC(=O)N/N=C/c1c[n+]([O-])c2ccccc2[n+]1[O-]` [carbadox], in the test with pigs (carbadox 50 mg/kg feed until day 14, 25 mg/kg feed after day 14), the “more feed required for the same amount of weight gain than treatment with 0.1 mg/kg feed mifamurtide” value came out at 14.6%. In the test with pigs (carbadox 50 mg/kg feed until day 14, 25 mg/kg feed after day 14, weaned pigs), the “feed conversion (total consumed feed / total weight gain)” value is recorded as 1.692.
